Source: patent publication US10597388B2, “Pyridazinone herbicides” (FMC CORPORATION, priority 2014, dated 2020)

What was measured:
Experiment in all cases: Test E greenhouse herbicide test, pre- and postemergence
Type in all cases: in vivo
[1] = test system: Italian ryegrass (Lolium multiflorum)
In short: (§1)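 Compounds in a non-phytotoxic solvent mixture with surfactant were applied preemergence to seeds in silt loam soil and postemergence to 2-18 cm plants (1- to 4-leaf stage) in peat-based medium. After 14 to 21 d in a greenhouse, injury was rated visually against untreated controls on a 0 (no effect) to 100 (complete control) scale.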

[2] = test system: barnyardgrass (Echinochloa crus-galli)
In short: as §1

[3] = test system: crabgrass, large (large crabgrass, Digitaria sanguinalis); conditions: Preemergence
In short: as §1

[4] = test system: dayflower (Virginia (VA) dayflower, Commelina virginica)
In short: as §1

[5] = test system: field bindweed (Convolvulus arvensis)
In short: as §1

[6] = test system: foxtail, green (green foxtail, Setaria viridis); conditions: Preemergence
In short: as §1

[7] = test system: horseweed (Conyza canadensis); conditions: Postemergence
In short: as §1

[8] = test system: momingglory (Ipomoea coccinea); conditions: Preemergence
In short: as §1

[9] = test system: nutsedge, yellow (yellow nutsedge, Cyperus esculentus); conditions: Preemergence
In short: as §1

[10] = test system: waterhemp (common waterhemp, Amaranthus rudis)
In short: as §1

[11] = 62 g ai/ha, Postemergence, scale 0 to 100 (0 no effect, 100 complete control)
[12] = 62 g ai/ha, Preemergence, scale 0 to 100 (0 no effect, 100 complete control)
[13] = 125 g ai/ha, Postemergence, scale 0 to 100 (0 no effect, 100 complete control)
[14] = 125 g ai/ha, Preemergence, scale 0 to 100 (0 no effect, 100 complete control)
[15] = 250 g ai/ha, Postemergence, scale 0 to 100 (0 no effect, 100 complete control)
[16] = Postemergence, 31 g ai/ha, visual, scale 0 no effect to 100 complete control
[17] = Preemergence, 31 g ai/ha, scale 0 to 100, 0 no effect, 100 complete control
[18] = Preemergence, 250 g ai/ha, visual, scale 0 no effect to 100 complete control
[19] = 62 g ai/ha, scale 0 to 100 (0 no effect, 100 complete control)
[20] = 125 g ai/ha, scale 0 to 100 (0 no effect, 100 complete control)
[21] = 31 g ai/ha, scale 0 to 100, 0 no effect, 100 complete control
[22] = 250 g ai/ha, visual, scale 0 no effect to 100 complete control
[23] = 250 g ai/ha, scale 0 to 100 (0 no effect, 100 complete control)
[24] = 31 g ai/ha, visual, scale 0 no effect to 100 complete control

Compound: CCOC(=O)Oc1c(C)nn(C)c(=O)c1-c1c(C)sc2c(C)cc(C)cc12 [Compound 83]
- Plant response rating, Ryegrass, Italian [1, 11]: 60
- Plant response rating, Ryegrass, Italian [1, 12]: 95
- Plant response rating, Ryegrass, Italian [1, 13]: 80
- Plant response rating, Ryegrass, Italian [1, 14]: 98
- Plant response rating, Ryegrass, Italian [1, 15]: 85
- Plant response rating, Ryegrass, Italian [1, 16]: 60
- Plant response rating, Ryegrass, Italian [1, 17]: 80
- Plant response rating, Ryegrass, Italian [1, 18]: 100
- Plant response rating, Barnyardgrass [2, 11]: 50
- Plant response rating, Barnyardgrass [2, 12]: 30
- Plant response rating, Barnyardgrass [2, 13]: 40
- Plant response rating, Barnyardgrass [2, 14]: 35
- Plant response rating, Barnyardgrass [2, 15]: 50
- Plant response rating, Barnyardgrass [2, 16]: 40
- Plant response rating, Barnyardgrass [2, 17]: 0
- Plant response rating, Barnyardgrass [2, 18]: 75
- Plant response rating, Crabgrass, Large [3, 19]: 5
- Plant response rating, Crabgrass, Large [3, 20]: 40
- Plant response rating, Crabgrass, Large [3, 21]: 0
- Plant response rating, Crabgrass, Large [3, 22]: 20
- Plant response rating, Dayflower, VA [4, 11]: 60
- Plant response rating, Dayflower, VA [4, 12]: 10
- Plant response rating, Dayflower, VA [4, 13]: 75
- Plant response rating, Dayflower, VA [4, 14]: 25
- Plant response rating, Dayflower, VA [4, 15]: 70
- Plant response rating, Dayflower, VA [4, 16]: 50
- Plant response rating, Dayflower, VA [4, 17]: 0
- Plant response rating, Dayflower, VA [4, 18]: 65
- Plant response rating, Field Bindweed [5, 11]: 70
- Plant response rating, Field Bindweed [5, 12]: 5
- Plant response rating, Field Bindweed [5, 13]: 70
- Plant response rating, Field Bindweed [5, 14]: 35
- Plant response rating, Field Bindweed [5, 15]: 75
- Plant response rating, Field Bindweed [5, 16]: 60
- Plant response rating, Field Bindweed [5, 17]: 0
- Plant response rating, Field Bindweed [5, 18]: 100
- Plant response rating, Foxtail, Green [6, 19]: 40
- Plant response rating, Foxtail, Green [6, 20]: 95
- Plant response rating, Foxtail, Green [6, 21]: 0
- Plant response rating, Foxtail, Green [6, 22]: 70
- Plant response rating, Horseweed [7, 19]: 80
- Plant response rating, Horseweed [7, 20]: 85
- Plant response rating, Horseweed [7, 23]: 90
- Plant response rating, Horseweed [7, 24]: 75
- Plant response rating, Morningglory [8, 19]: 20
- Plant response rating, Morningglory [8, 20]: 95
- Plant response rating, Morningglory [8, 21]: 25
- Plant response rating, Morningglory [8, 22]: 100
- Plant response rating, Nutsedge, Yellow [9, 19]: 65
- Plant response rating, Nutsedge, Yellow [9, 20]: 70
- Plant response rating, Nutsedge, Yellow [9, 21]: 65
- Plant response rating, Nutsedge, Yellow [9, 22]: 75
- Plant response rating, Waterhemp [10, 12]: 65
- Plant response rating, Waterhemp [10, 13]: 40
- Plant response rating, Waterhemp [10, 14]: 75
- Plant response rating, Waterhemp [10, 15]: 60
- Plant response rating, Waterhemp [10, 16]: 40
- Plant response rating, Waterhemp [10, 17]: 65
- Plant response rating, Waterhemp [10, 18]: 75

Compound: Cc1cc(C)c2sc(C)c(-c3c(OC(=O)OCCCl)c(C)nn(C)c3=O)c2c1 [Compound 85]
- Plant response rating, Ryegrass, Italian [1, 11]: 60
- Plant response rating, Ryegrass, Italian [1, 12]: 80
- Plant response rating, Ryegrass, Italian [1, 13]: 75
- Plant response rating, Ryegrass, Italian [1, 14]: 95
- Plant response rating, Ryegrass, Italian [1, 15]: 80
- Plant response rating, Ryegrass, Italian [1, 16]: 50
- Plant response rating, Ryegrass, Italian [1, 17]: 80
- Plant response rating, Ryegrass, Italian [1, 18]: 100
- Plant response rating, Barnyardgrass [2, 11]: 30
- Plant response rating, Barnyardgrass [2, 12]: 0
- Plant response rating, Barnyardgrass [2, 13]: 20
- Plant response rating, Barnyardgrass [2, 14]: 30
- Plant response rating, Barnyardgrass [2, 15]: 30
- Plant response rating, Barnyardgrass [2, 16]: 20
- Plant response rating, Barnyardgrass [2, 17]: 0
- Plant response rating, Barnyardgrass [2, 18]: 35
- Plant response rating, Crabgrass, Large [3, 19]: 0
- Plant response rating, Crabgrass, Large [3, 20]: 0
- Plant response rating, Crabgrass, Large [3, 21]: 0
- Plant response rating, Crabgrass, Large [3, 22]: 25
- Plant response rating, Dayflower, VA [4, 11]: 60
- Plant response rating, Dayflower, VA [4, 12]: 0
- Plant response rating, Dayflower, VA [4, 13]: 60
- Plant response rating, Dayflower, VA [4, 14]: 30
- Plant response rating, Dayflower, VA [4, 15]: 80
- Plant response rating, Dayflower, VA [4, 16]: 50
- Plant response rating, Dayflower, VA [4, 17]: 0
- Plant response rating, Dayflower, VA [4, 18]: 75
- Plant response rating, Field Bindweed [5, 11]: 50
- Plant response rating, Field Bindweed [5, 12]: 5
- Plant response rating, Field Bindweed [5, 13]: 60
- Plant response rating, Field Bindweed [5, 14]: 20
- Plant response rating, Field Bindweed [5, 15]: 90
- Plant response rating, Field Bindweed [5, 16]: 50
- Plant response rating, Field Bindweed [5, 18]: 95
- Plant response rating, Foxtail, Green [6, 19]: 25
- Plant response rating, Foxtail, Green [6, 20]: 15
- Plant response rating, Foxtail, Green [6, 21]: 0
- Plant response rating, Foxtail, Green [6, 22]: 100
- Plant response rating, Horseweed [7, 19]: 85
- Plant response rating, Horseweed [7, 20]: 85
- Plant response rating, Horseweed [7, 23]: 90
- Plant response rating, Horseweed [7, 24]: 60
- Plant response rating, Morningglory [8, 19]: 30
- Plant response rating, Morningglory [8, 20]: 50
- Plant response rating, Morningglory [8, 21]: 25
- Plant response rating, Morningglory [8, 22]: 100
- Plant response rating, Nutsedge, Yellow [9, 19]: 35
- Plant response rating, Nutsedge, Yellow [9, 20]: 35
- Plant response rating, Nutsedge, Yellow [9, 22]: 65
- Plant response rating, Waterhemp [10, 12]: 80
- Plant response rating, Waterhemp [10, 13]: 65
- Plant response rating, Waterhemp [10, 14]: 70
- Plant response rating, Waterhemp [10, 15]: 90
- Plant response rating, Waterhemp [10, 16]: 50
- Plant response rating, Waterhemp [10, 17]: 35
- Plant response rating, Waterhemp [10, 18]: 85
